Measurements published in patent publication US7538182B2, “Polypeptide and protein derivatives and process for their preparation” (Amylin Pharmaceuticals, Inc., priority 1986, dated 2009).

Tests used:
[1] = Removal of iron with propionic acid/EDTA, followed by spectroscopy (loss of the 400-450 nm peak); type: physicochemical; details: test solution of 1 mM ferrioxamine B
Source text: The pink colour of the solution was rapidly lost. If desired the reaction can be followed spectroscopically, since after removal of iron the peak between 400 nm and 450 nm, characteristic of the ferrioxamine B conjugate will disappear completely.

[2] = type: physicochemical
Source text: Once the iron had been removed, the solution was adjusted to pH 5.5 with 1.7 M sodium acetate buffer. The resulting precipitate was carefully washed by centrifugation in 0.7 M sodium acetate buffer, until the residual EDTA concentration could be expected to be negligible compared to that of the conjugate.

Molecule	rate of the removal of iron ([1]; pH 2.5)	half-time for the removal of iron ([1]; pH 3)	half-time for the removal of iron ([1]; pH 3.5)	storage stability (capacity to be labelled) [2]
CC(=O)N([O-])CCCCCNC(=O)CCC(=O)N([O-])CCCCCNC(=O)CCC(=O)N([O-])CCCCCN.[Fe+3] [ferrioxamine B]	too rapid to follow	approximately 90 seconds	approximately 340 sec	–
des-Ala^B30-insulin/desferrioxamine B conjugate [iron-free protein derivative]	–	–	–	without apparent impairment
